Some results are limits rather than exact numbers.

The target in the experiment is LSD-1 enzyme (Homo sapiens (Human), UniProt O60341). Kind of experiment: LANCE LSD1/KDM1A demethylase assay (LSD1 histone demethylase biochemical assay). To be noted: 1 nM LSD-1 enzyme, 1 hour preincubation at 25° C., Biotin-labeled Histone H3 peptide substrate.
As for `Cn1ncc2cc(-c3c(-c4ccc(C#N)cc4)nc(OC[C@@H]4CCCN(CCC#N)C4)n4ccnc34)cnc21` [Example 33, 4-[5-{[(3R)-1-(2-cyanoethyl)piperidin-3-yl]methoxy}-8-(1-methyl-1H-pyrazolo[3,4-b]pyridin-5-yl)imidazo[1,2-c]pyrimidin-7-yl]benzonitrile], the IC50 is at most 50 nM. Compound `COc1ccc(-c2c(-c3ccc(C#N)cc3)nc(N3CCC(N(C)C)CC3)n3ccnc23)cn1` [Example 48, 4-[5-[4-(dimethylamino)piperidin-1-yl]-8-(6-methoxypyridin-3-yl)imidazo[1,2-c]pyrimidin-7-yl]benzonitrile] showed a 50% inhibitory concentration (IC50) of 50 to 500 nM. Regarding `Cc1ncc(-c2c(-c3ccc(C#N)cc3)nc(OC[C@@H]3CCCN(C)C3)n3ccnc23)cc1C#N` [Example 70, 5-(7-(4-cyanophenyl)-5-{[(3R)-1-methylpiperidin-3-yl]methoxy}imidazo[1,2-c]pyrimidin-8-yl)-2-methylnicotinonitrile], the IC50 was at most 50 nM. On to `C[C@@H](O)CN1CCC[C@@H](COc2nc(-c3ccc(C#N)cc3)c(-c3cnc4c(cnn4C)c3)c3nccn23)C1` [Example 136, 4-[5-({(3R)-1-[(2R)-2-hydroxypropyl]piperidin-3-yl}methoxy)-8-(1-methyl-1H-pyrazolo[3,4-b]pyridin-5-yl)imidazo[1,2-c]pyrimidin-7-yl]benzonitrile], for which the half-inhibitory concentration (IC50) was 50 to 500 nM.

Compound `CN1CCC[C@@H](COc2nc(-c3ccc(C#N)cc3)c(-c3cnc4c(ccn4C)c3)c3nccn23)C1` [Example 19, 4-[5-{[(3R)-1-methylpiperidin-3-yl]methoxy}-8-(1-methyl-1H-pyrrolo[2,3-b]pyridin-5-yl)imidazo[1,2-c]pyrimidin-7-yl]benzonitrile] registered an IC50 of at most 50 nM. Consider `CN1CCC[C@@H](COc2nc(-c3ccc(C#N)cc3)c(-c3ccc4c(c3)n(C)c(=O)n4C)c3nccn23)C1` [Example 44, 4-(8-(1,3-dimethyl-2-oxo-2,3-dihydro-1H-benzimidazol-5-yl)-5-{[(3R)-1-methylpiperidin-3-yl]methoxy}imidazo[1,2-c]pyrimidin-7-yl)benzonitrile], for which the IC50 was 50 to 500 nM. Consider `Cc1cc(-c2c(-c3ccc(C#N)cc3)nc(OC[C@@H]3CCCN(C)C3)n3ccnc23)cc(F)c1CO` [Example 30, 4-(8-[3-fluoro-4-(hydroxymethyl)-5-methylphenyl]-5-{[(3R)-1-methylpiperidin-3-yl]methoxy}imidazo[1,2-c]pyrimidin-7-yl)benzonitrile], for which the IC50 is at most 50 nM.

On to `CN(C)C1CCN(c2nc(-c3ccc(C#N)cc3)c(-c3ccc4c(c3)nc(C(F)F)n4C)c3nccn23)CC1` [Example 52, 4-{8-[2-(difluoromethyl)-1-methyl-1H-benzimidazol-5-yl]-5-[4-(dimethylamino)piperidin-1-yl]imidazo[1,2-c]pyrimidin-7-yl}benzonitrile], for which the half-inhibitory concentration (IC50) is at most 50 nM. Consider `CCN1CCC[C@@H](COc2nc(-c3ccc(C#N)cc3)c(-c3cnc4c(cnn4C)c3)c3nccn23)C1` [Example 29, 4-[5-{[(3R)-1-ethylpiperidin-3-yl]methoxy}-8-(1-methyl-1H-pyrazolo[3,4-b]pyridin-5-yl)imidazo[1,2-c]pyrimidin-7-yl]benzonitrile], for which the half-inhibitory concentration (IC50) is at most 50 nM. Take `CN1CCC[C@@H](COc2nc(-c3ccc(C#N)cc3)c(-c3ccc4c(cnn4C)c3)c3nccn23)C1` [Example 8, 4-(8-(1-methyl-1H-indazol-5-yl)-5-{[(3R)-1-methylpiperidin-3-yl]methoxy}imidazo[1,2-c]pyrimidin-7-yl)benzonitrile]: the IC50 was at most 50 nM.

In turn, `Cc1ccc(-c2c(-c3ccc(C#N)cc3)nc(OC[C@@H]3CCCN(C)C3)n3ccnc23)cc1C(C)O` (stereo partly drawn) [Example 93, 4-(8-[3-(1-hydroxyethyl)-4-methylphenyl]-5-{[(3R)-1-methylpiperidin-3-yl]methoxy}imidazo[1,2-c]pyrimidin-7-yl)benzonitrile] showed an IC50 of at most 50 nM. On to `Cc1cc(-c2c(-c3ccc(C#N)cc3)nc(OC[C@@H]3CCCN(C)C3)n3ccnc23)ccc1CO` [Example 35, 4-(8-[4-(hydroxymethyl)-3-methylphenyl]-5-{[(3R)-1-methylpiperidin-3-yl]methoxy}imidazo[1,2-c]pyrimidin-7-yl)benzonitrile], for which the half-inhibitory concentration (IC50) is at most 50 nM. With `CN1CCC[C@@H](COc2nc(-c3ccc(C#N)cc3)c(-c3ccc(CN(C)C(=O)N(C)C)c(F)c3)c3nccn23)C1` [Example 85, N-[4-(7-(4-cyanophenyl)-5-{[(3R)-1-methylpiperidin-3-yl]methoxy}imidazo[1,2-c]pyrimidin-8-yl)-2-fluorobenzyl]-N,N′,N′-trimethylurea], the concentration for half-maximal inhibition (IC50) is at most 50 nM. `CN1CCN(Cc2ccc(-c3c(-c4ccc(C#N)cc4)nc(OC[C@@H]4CCCN(C)C4)n4ccnc34)cc2)CC1` [Example 9, 4-(8-{4-[(4-methylpiperazin-1-yl)methyl]phenyl}-5-{[(3R)-1-methylpiperidin-3-yl]methoxy}imidazo[1,2-c]pyrimidin-7-yl)benzonitrile]: the IC50 is at most 50 nM. The compound `CN1CCC[C@@H](COc2nc(-c3ccc(C#N)cc3)c(-c3ccc(CN4CCOCC4)cc3)c3nccn23)C1` [Example 12, 4-{5-{[(3R)-1-methylpiperidin-3-yl]methoxy}-8-[4-(morpholin-4-ylmethyl)phenyl]imidazo[1,2-c]pyrimidin-7-yl}benzonitrile] came in with a half-maximal inhibitory concentration (IC50) of 50 to 500 nM.

`Cc1ncc(-c2c(-c3ccc(C#N)cc3)nc(OC[C@@H]3CCCN(C)C3)n3ccnc23)cc1F` [Example 74, 4-(8-(5-fluoro-6-methylpyridin-3-yl)-5-{[(3R)-1-methylpiperidin-3-yl]methoxy}imidazo[1,2-c]pyrimidin-7-yl)benzonitrile] returned an IC50 of 50 to 500 nM. Consider `COCCN1CCC[C@@H](COc2nc(-c3ccc(C#N)cc3)c(-c3cnc4c(cnn4C)c3)c3nccn23)C1` [Example 41, 4-[5-{[(3R)-1-(2-methoxyethyl)piperidin-3-yl]methoxy}-8-(1-methyl-1H-pyrazolo[3,4-b]pyridin-5-yl)imidazo[1,2-c]pyrimidin-7-yl]benzonitrile], for which the 50% inhibitory concentration (IC50) is at most 50 nM. In the case of `Cc1ccc(-c2c(-c3ccc(C#N)cc3)nc(N3CCC(N(C)C)CC3)n3ccnc23)cc1CO` [Example 102, 4-{5-[4-(dimethylamino)piperidin-1-yl]-8-[3-(hydroxymethyl)-4-methylphenyl]imidazo[1,2-c]pyrimidin-7-yl}benzonitrile] it was at most 50 nM. In the case of `CN1CCC[C@@H](COc2nc(-c3ccc(C#N)cc3)c(-c3ccc4cnn(C)c4c3)c3nccn23)C1` [Example 18, 4-(8-(1-methyl-1H-indazol-6-yl)-5-{[(3R)-1-methylpiperidin-3-yl]methoxy}imidazo[1,2-c]pyrimidin-7-yl)benzonitrile] it was 50 to 500 nM; in that of `CN(C)C1CCN(c2nc(-c3ccc(C#N)cc3)c(-c3ccc4c(c3)CC(O)C4)c3nccn23)CC1` (stereo not drawn) [Example 122, 4-[5-[4-(dimethylamino)piperidin-1-yl]-8-(2-hydroxy-2,3-dihydro-1H-inden-5-yl)imidazo[1,2-c]pyrimidin-7-yl]benzonitrile], at most 50 nM; in that of `CN1CC[C@@H](COc2nc(-c3ccc(C#N)cc3)c(-c3ccc4c(c3)oc(=O)n4C)c3nccn23)C1` [Example 26, 4-(8-(3-methyl-2-oxo-2,3-dihydro-1,3-benzoxazol-6-yl)-5-{[(3R)-1-methylpyrrolidin-3-yl]methoxy}imidazo[1,2-c]pyrimidin-7-yl)benzonitrile], 50 to 500 nM.

One may read the IC50 as the midpoint of a concentration-inhibition curve. Low readings indicate inhibition by little substance, high ones a need for much substance.

For the origin of these results see patent US9944647B2 (Incyte Corporation, priority 2015, dated 2018).
